Values quoted from earlier work as cited in patent EP3290412A1, “HIV-1 NUCLEOCAPSID INHIBITORS” (Università degli Studi di Siena, priority 2016, dated 2018).

System: NIH Catalogue Number: 11845
Details: INI resistant strain 11845; cited from earlier work

COc1cc2c(cc1Cc1cccc(Cl)c1F)c(=O)c(C(=O)O)cn2[C@H](CO)C(C)C [Elvitegravir™, Elvitegravir]
Level of resistance: Intermediate
